Where “and” joins values, the source holds several entries; their conditions need not be identical. Identical values can stand only once.
Tests used:
Settings in all cases: incubation time: 72 h
[1] = system: CAL-148; experiment: normalised viability (% of control), CellTiter-Blue; higher = more viable cells (about 100 = DMSO control)
Method: (§1)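 DSRT, CellTiter-Blue viability, 72 h incubation. Signal is normalised to DMSO and benzethonium chloride controls. Value is the normalised response at dose 9.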

[2] = system: CAL-51; experiment: as above
Method: as §1

[3] = system: CAL-85-1; experiment: as above
Method: as §1

[4] = system: DU-4475; experiment: as above
Method: as §1

[5] = system: HDQ-P1; experiment: as above
Method: as §1

[6] = system: MDA-MB-453; experiment: as above
Method: as §1

[7] = system: MDA-MB-436; experiment: normalised response (% of control), CellTiter-Glo; higher = more viable cells (100 = DMSO, 0 = benzethonium chloride kill control)
Procedure, shortened: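 Each entry is the normalised signal at a single concentration within a series. The series comprised 5 concentrations in 10-fold steps over a compound-specific 10,000-fold range, placed in 384-well plates into which breast cancer cell lines were seeded as 20 µl suspension and incubated 72 h. CellTox Green (485/520 nm) fluorescence and then CellTiter-Glo luminescence were read, with signals normalised per plate to 0.1 % DMSO (100) and a positive kill control (0).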

[8] = system: CAL-148; experiment: normalised viability (% of control), CellTiter-Blue; higher = more viable cells (about 100 = DMSO control); remark: listed apart in the source
Method: (§2)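 DSRT, CellTiter-Blue viability, 72 h incubation. Signal is normalised to DMSO and benzethonium chloride controls. Value is the normalised response at dose 7.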

[9] = system: CAL-51; experiment: as above; remark: listed apart in the source
Method: as §2

[10] = system: CAL-85-1; experiment: as above; remark: listed apart in the source
Method: as §2

[11] = system: DU-4475; experiment: as above; remark: listed apart in the source
Method: as §2

[12] = system: HDQ-P1; experiment: as above; remark: listed apart in the source
Method: as §2

[13] = system: MDA-MB-453; experiment: as above; remark: listed apart in the source
Method: as §2

| SMILES | normalised viability [1] | normalised viability [2] | normalised viability [3] | normalised viability [4] | normalised viability [5] | normalised viability [6] | normalised response [7] | normalised viability [8] | normalised viability [9] | normalised viability [10] | normalised viability [11] | normalised viability [12] | normalised viability [13] |
| --- | --- | --- | --- | --- | --- | --- | --- | --- | --- | --- | --- | --- | --- |
| Cc1ccc(NC(=O)c2ccc(CN3CCN(C)CC3)cc2)cc1Nc1nc(-c2cccnc2)cs1 [Masitinib] (10000 nM) | 74.5% | 80.4% | 70.4% | 119% | 67.6% | 24.4% | 51.7% | – | – | – | – | – | – |
| O=C(Nc1cccnc1)N1CCC(Cc2cccc(Oc3ccc(C(F)(F)F)cn3)c2)CC1 [PF-3845] (10000 nM) | 98.2% | 65.5% | 93.4% | 108% | 128% | 38.4% | 72.6% | – | – | – | – | – | – |
| COc1cc(OC2CCN(C)CC2)ccc1Nc1ncc2c(n1)n(C1CCCC1)c(=O)n2C [AZ 3146] (10000 nM) | 48.4% | 22% | 72.4% | 54.6% | 80.1% | 37.4% | 79.3% | – | – | – | – | – | – |
| N#Cc1ccc(COC[C@H]2O[C@@H](n3c(NCc4ccc(Cl)c(Cl)c4)nc4c(N)ncnc43)[C@H](O)[C@@H]2O)cc1 (10000 nM) | 89% | 89.9% | 92% | 76.9% | 88.4% | 50.3% | 85.1% | – | – | – | – | – | – |
| CN(C)CCOc1ccc(/C(=C(/CCCl)c2ccccc2)c2ccccc2)cc1 [Toremifene] (10000 nM) | 104% | 105% | 83.6% | 94.5% | 108% | 26.5% | 83.7% | – | – | – | – | – | – |
| NC(=O)c1ccc(I)c([N+](=O)[O-])c1 [Iniparib] (1000 nM) | – | – | – | – | – | – | – | 87.9% | 95.3% | 83.3% | 108% | 99.6% | 89.2% |
| CNC(=O)c1cc(Oc2ccc(NC(=O)Nc3ccc(Cl)c(C(F)(F)F)c3)c(F)c2)ccn1 [Regorafenib] (10000 nM) | 81.7% | 48.2% | 76.7% | 39.3% | 92.9% | 22% | 46.9% | – | – | – | – | – | – |
| O=C(Nc1cccnc1)N1CCC(Cc2cccc(Oc3ccc(C(F)(F)F)cn3)c2)CC1 [PF-3845] (1000 nM) | – | – | – | – | – | – | – | 101% | 101% | 83% | 81.3% | 144% | 86% |
| c1ccc2c(CCNc3ccc(Nc4ccncc4)cc3)c[nH]c2c1 [Serdemetan] (1000 nM) | – | – | – | – | – | – | – | 77.3% | 102% | 75.9% | 104% | 96.4% | 85.2% |
| Oc1ccc2c(c1)CC[C@H](c1ccccc1)[C@@H]2c1ccc(OCCN2CCCC2)cc1 [Lasofoxifene] (100 nM) | – | – | – | – | – | – | – | 107% | 99.7% | 87.2% | 106% | 109% | 80.7% |
| COc1cc2/c(=N/c3ccc(Br)cc3F)nc[nH]c2cc1OCC1CCN(C)CC1 [Vandetanib] (1000 nM) | – | – | – | – | – | – | 86% | 89.2% | 82.4% | 71% | 105% | 48.7% | 87.9% |
| O=C(Nc1ccncc1)C(=O)c1cn(Cc2ccc(Cl)cc2)c2ccccc12 [Indibulin] (10000 nM) | 43.7% | 24.4% | 38.9% | 21.4% | 55.2% | 36% | 44.7% | – | – | – | – | – | – |
| N#Cc1ccc(COC[C@H]2O[C@@H](n3c(NCc4ccc(Cl)c(Cl)c4)nc4c(N)ncnc43)[C@H](O)[C@@H]2O)cc1 (1000 nM) | – | – | – | – | – | – | – | 101% | 105% | 88.9% | 99.8% | 81.2% | 93.2% |
| COCC1(CO)C(=O)C2CCN1CC2 (stereo unspecified) [Prima-1 Met] (1000 nM) | – | – | – | – | – | – | – | 102% | 102% | 90.9% | 108% | 106% | 80.5% |
| COc1cc2ncnc(Nc3ccc(F)c(Cl)c3)c2cc1OCCCN1CCOCC1 [Gefitinib] (1000 nM) | – | – | – | – | – | – | – | 79.6% and 83.3% | 107% and 98.3% | 54.4% and 47.4% | 101% and 86.2% | 76.2% and 90.4% | 82.9% and 76.9% |
| O=C(/C=C/c1cccc(S(=O)(=O)Nc2ccccc2)c1)NO [Belinostat] (1000 nM) | – | – | – | – | – | – | – | 24.3% | 59.9% | 42.8% | 33.3% | 49.5% | 4.06% |
| Cc1ccc(NC(=O)c2ccc(CN3CCN(C)CC3)cc2)cc1Nc1nc(-c2cccnc2)cs1 [Masitinib] (1000 nM) | – | – | – | – | – | – | – | 87.1% | 104% | 94.3% | 120% | 105% | 89.6% |
| CCc1c2c(nc3ccc(OC(=O)N4CCC(N5CCCCC5)CC4)cc13)-c1cc3c(c(=O)n1C2)COC(=O)[C@]3(O)CC [Irinotecan] (1000 nM) | – | – | – | – | – | – | – | 61.5% and 70.9% | 80.6% and 99.8% | 88.7% and 94.5% | 73.1% and 78.7% | 98.8% and 93.5% | 76% and 99.8% |
| O=P1(N(CCCl)CCCl)NCCCO1 (stereo unspecified) [Cyclophosphamide] (40000 nM) | 110% | 101% | 98.4% | 94.4% | 120% | 117% | 96.3% | – | – | – | – | – | – |

| SMILES | normalised viability [1] | normalised viability [2] | normalised viability [3] | normalised viability [4] | normalised viability [5] | normalised viability [6] | normalised response [7] | normalised viability [8] | normalised viability [9] | normalised viability [10] | normalised viability [11] | normalised viability [12] | normalised viability [13] |
| --- | --- | --- | --- | --- | --- | --- | --- | --- | --- | --- | --- | --- | --- |
| COCC[n+]1c2c(n(Cc3cnccn3)c1C)C(=O)c1ccccc1C2=O [YM155] (1000 nM) | – | – | – | – | – | – | – | 2.29% | 1.61% | 2.27% | 1.98% | 0.25% | 7.19% |
| Oc1ccc2c(c1)CC[C@H](c1ccccc1)[C@@H]2c1ccc(OCCN2CCCC2)cc1 [Lasofoxifene] (1000 nM) | 107% | 90% | 81.8% | 97.8% | 125% | 107% | 110% | – | – | – | – | – | – |
| CC(C)C[C@@H](C(=O)N[C@H](C(=O)OC1CCCC1)c1ccccc1)[C@H](O)C(=O)NO [Tosedostat] (1000 nM) | – | – | – | – | – | – | – | 67.8% | 77.1% | 77% | 51% | 76.3% | 41.2% |
| CN(C)c1nc(N(C)C)nc(N(C)C)n1 [Altretamine] (10000 nM) | 63.4% | 72.6% | 46.5% | 94.7% | 111% | 18.7% | 107% | – | – | – | – | – | – |
| CNC(=O)c1cc(Oc2ccc(NC(=O)Nc3ccc(Cl)c(C(F)(F)F)c3)c(F)c2)ccn1 [Regorafenib] (1000 nM) | – | – | – | – | – | – | – | 107% | 90.5% | 78.6% | 97.6% | 98.3% | 87% |
| O=C(Nc1ccncc1)C(=O)c1cn(Cc2ccc(Cl)cc2)c2ccccc12 [Indibulin] (1000 nM) | – | – | – | – | – | – | – | 118% | 54.2% | 53.8% | 81.8% | 61.3% | 38.5% |
| CN(C)CCOc1ccc(/C(=C(/CCCl)c2ccccc2)c2ccccc2)cc1 [Toremifene] (1000 nM) | – | – | – | – | – | – | – | 108% | 100% | 99.7% | 97.4% | 124% | 106% |
| c1ccc2c(CCNc3ccc(Nc4ccncc4)cc3)c[nH]c2c1 [Serdemetan] (10000 nM) | 55.8% | 57% | 55.1% | -0.82% | 56.6% | 39.4% | 44.8% | – | – | – | – | – | – |
| CCc1c2c(nc3ccc(OC(=O)N4CCC(N5CCCCC5)CC4)cc13)-c1cc3c(c(=O)n1C2)COC(=O)[C@]3(O)CC [Irinotecan] (10000 nM) | – | 8.48% and 31.6% | – | 4.69% and 18.8% | 64% and 80% | – | 36.8% | – | – | – | – | – | – |
| CO[C@H]1C[C@@H]2CC[C@@H](C)[C@@](O)(O2)C(=O)C(=O)N2CCCC[C@H]2C(=O)O[C@H]([C@H](C)C[C@@H]2CC[C@@H](OP(C)(C)=O)[C@H](OC)C2)CC(=O)[C@H](C)/C=C(\C)[C@@H](O)[C@@H](OC)C(=O)[C@H](C)C[C@H](C)/C=C/C=C/C=C/1C [Ridaforolimus] (100 nM) | – | – | – | – | – | – | 82.5% | 37% | 39.4% | 52.5% | 53.7% | 76.6% | 24.1% |
| COCC1(CO)C(=O)C2CCN1CC2 (stereo unspecified) [Prima-1 Met] (10000 nM) | 80.7% | 99.7% | 98.3% | 125% | 103% | 89.4% | 97.7% | – | – | – | – | – | – |
| COc1cc(OC2CCN(C)CC2)ccc1Nc1ncc2c(n1)n(C1CCCC1)c(=O)n2C [AZ 3146] (1000 nM) | – | – | – | – | – | – | – | 108% | 75.2% | 108% | 99% | 89.4% | 90.6% |
| C=C1C[C@@H]2[C@H](CC[C@]3(C)C(=O)CC[C@@H]23)[C@@]2(C)C=CC(=O)C=C12 [Exemestane] (1000 nM) | – | – | – | – | – | – | – | 120% | 96.5% | 91.7% | 85.8% | 102% | 90.2% |
| O=C(/C=C/c1cccc(S(=O)(=O)Nc2ccccc2)c1)NO [Belinostat] (10000 nM) | 0.35% | 3.47% | 7.19% | 4.25% | 23% | 1.48% | 29.3% | – | – | – | – | – | – |
| O=P1(N(CCCl)CCCl)NCCCO1 (stereo unspecified) [Cyclophosphamide] (4000 nM) | – | – | – | – | – | – | – | 121% | 99% | 101% | 97% | 99.2% | 105% |
| NC(=O)c1ccc(I)c([N+](=O)[O-])c1 [Iniparib] (10000 nM) | 108% | 91.6% | 98% | 94% | 106% | 84.8% | 73.3% | – | – | – | – | – | – |
| CN(C)c1nc(N(C)C)nc(N(C)C)n1 [Altretamine] (1000 nM) | – | – | – | – | – | – | – | 105% | 103% | 96.9% | 113% | 101% | 91.6% |
| Cc1[nH]c2ccccc2c1CCNCc1ccc(/C=C/C(=O)NO)cc1 [Panobinostat] (100 nM) | – | – | – | – | – | – | – | 5.94% | 25.6% | 15.6% | 3.38% | 32.3% | 2.59% |

Reference: the supplement of paper PMC4862054
